{
  "source": "paper PMC10671074",
  "about": "“Tumor Regression upon Intratumoral and Subcutaneous Dosing of the STING Agonist ALG-031048 in Mouse Efficacy Models” (International Journal of Molecular Sciences, 2023)",
  "key": {"ENPP1": {"target": "T1, ENPP1 (Homo sapiens, UniProt P22413)", "T1 construct": "purchased R&D Systems", "T1 sequence (P22413 1-925)": "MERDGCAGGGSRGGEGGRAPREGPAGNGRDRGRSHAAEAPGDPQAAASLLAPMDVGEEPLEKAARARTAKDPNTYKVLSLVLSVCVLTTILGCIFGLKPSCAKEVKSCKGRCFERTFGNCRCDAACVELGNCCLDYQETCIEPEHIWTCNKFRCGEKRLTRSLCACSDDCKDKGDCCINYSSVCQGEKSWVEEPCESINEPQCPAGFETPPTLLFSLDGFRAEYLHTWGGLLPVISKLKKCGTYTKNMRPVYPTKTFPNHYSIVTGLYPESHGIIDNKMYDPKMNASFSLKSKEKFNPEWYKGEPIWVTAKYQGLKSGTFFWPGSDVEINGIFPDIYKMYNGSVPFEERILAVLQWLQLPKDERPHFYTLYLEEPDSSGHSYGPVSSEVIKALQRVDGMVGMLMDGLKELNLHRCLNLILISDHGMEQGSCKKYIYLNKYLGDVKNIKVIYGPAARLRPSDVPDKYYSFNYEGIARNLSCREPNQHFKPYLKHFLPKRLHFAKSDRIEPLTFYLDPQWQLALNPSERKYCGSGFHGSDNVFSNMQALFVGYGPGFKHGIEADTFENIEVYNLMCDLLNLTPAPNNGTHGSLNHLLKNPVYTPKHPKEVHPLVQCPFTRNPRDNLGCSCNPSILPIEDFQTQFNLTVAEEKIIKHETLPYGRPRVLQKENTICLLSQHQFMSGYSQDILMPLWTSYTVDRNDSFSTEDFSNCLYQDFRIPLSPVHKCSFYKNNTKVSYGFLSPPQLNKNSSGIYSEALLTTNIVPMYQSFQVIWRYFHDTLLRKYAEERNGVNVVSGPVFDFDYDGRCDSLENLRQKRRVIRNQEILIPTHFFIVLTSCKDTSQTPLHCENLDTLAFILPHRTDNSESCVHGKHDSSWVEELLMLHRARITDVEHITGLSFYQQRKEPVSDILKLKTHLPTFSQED", "assay": "ENPP1 stability assay", "type": "in vitro ADME", "details": "pH 9.5; 100 μM STING agonist, 26.5 nM recombinant human ENPP1, 37 °C, up to 2 h; read-out: ENPP1 t½"}, "plasma cytokines": {"test_system": "plasma cytokines", "assay": "Plasma cytokine analysis in CT26-tumor-bearing mice", "type": "in vivo, mouse", "details": "CT26-bearing BALB/c, one IT dose of 100 μg, 4 h after dosing", "protocol": "Plasma levels of IFN-α, IFN-β, IL-2, TNF-α, IL-6, IL-12, IP-10, IFN-γ, and MCP-1 (in pg/mL) were measured using the ProcartaPlex 9-Plex (ThermoFisher Scientific) according to the manufacturer’s instructions. Data were processed using Milliplex Analyst software version 5.1 on a MAGPIX instrument (Luminex Corp., Austin, TX, USA).\nFigure S5. Plasma cytokine levels in female BALB/c mice bearing SC CT26 tumors receiving one IT dose of 100 μg ADU‐S100 or ALG‐031048, at a mean TV of 116 mm3. Cytokine concentrations were analyzed 4 hours after dos ing. Only statistically significant differences (unpaired, parametric t test) are indicated by brackets.\n(also on this page, place not known: pg/ml pg/ml pg/ml pg/ml pg/ml pg/ml pg/ml pg/ml pg/ml dosing.) […]\n1 mg 4 mg Saline 25 g/kg S /kg SC\nFigure S8. Cytokine induction in CT26 tumor‐bearing mice upon SC administration of ALG‐031048.\n10 mice per group were treated with 3 doses 3 days apart. Plasma samples were collected 6 hours […]"}, "[1]": {"test_system": "phosphodiesterase I from Crotalus adamanteus venom (SVPD)"}, "subcutaneous CT26 tumors": {"test_system": "subcutaneous CT26 tumors", "details": "for Delay of tumor growth compared with vehicle / Delayed Response (TV > 10 and <2000 mm^3) / Treatment Failure (TV > 2000 mm^3) / Complete Response (TV < 10 mm^3) / Median Time to Endpoint: 3 × q3d; for Median Time to Endpoint: vehicle 17.0", "quoted_text": "Each mouse was inoculated subcutaneously in the right flank with 3 × 10^5 CT26 cells (in 0.1 mL PBS) for tumor development.\nPBS was used as the vehicle control. […] Vehicles and test compounds were administered IT q3d × 3 in a volume of 0.05 mL. SC administration was performed between the shoulder blades at a dosing volume of 10 mL/kg. Tumors were measured twice a week in two dimensions using calipers, and volume was calculated using Formula (1):Tumor Volume (mm^3) = 0.5 (w^2 × l)(1)\nHere, w = width and l = length, in mm, of a tumor.\nTumor weight was estimated with the assumption that 1 mg is equivalent to 1 mm^3 of tumor volume.\nAnimals were euthanized when (1) their tumor reached the endpoint volume of 2000 mm^3, (2) their body weight loss exceeded 30%, or (3) on the last day of the study, whichever came first. The TTE for analysis was calculated for each mouse by the following Equation (2):TTE = (log10 (endpoint volume) − b)/m(2)\nTTE is expressed in days, endpoint volume is expressed in mm^3, b is the intercept, and m is the slope of the line obtained via linear regression of a log-transformed tumor growth data set. […] Animals were weighed on Days 1–5, then twice weekly for the duration of the study."}, "[2]": {"test_system": "phosphodiesterase I from Crotalus adamanteus venom (SVPD)", "assay": "in vitro", "details": "pH 8"}, "[3]": {"details": "Table 2 study, 25 μg IT, n = 10"}, "[4]": {"details": "Table 2 study, 100 μg IT, n = 10"}, "[5]": {"details": "Table 3/4 study, 25 μg IT, n = 10"}},
  "note": "Like-named read-outs stand apart in the source and are kept apart here. Marks after values point to notes of the source that are not given here.",
  "data": [
    {"smiles": "CO[C@H]1[C@H]2OP(=O)(O)OC[C@@]34C[C@@H]3[C@@H](n3cnc5c(N)ncnc53)[C@H](O)[C@@H]4O[P@](=O)(S)OC[C@H]1O[C@H]2n1cnc2c(=O)[nH]c(N)nc21", "note": "[ALG-031048]", "values": [
      {"measurement": "half-life at 100 μM", "setting": "ENPP1", "value": "> 2", "unit": "h"},
      {"measurement": "Plasma cytokines after IT dosing", "setting": "plasma cytokines", "value": "increased cytokines such as IFN-α and -β, TNF-α, interleukin 6 (IL-6), MCP-1, and IP-10"},
      {"measurement": "Stability after incubation with SVPD (in words)", "setting": "[1]", "value": "stable"},
      {"measurement": "Delay of tumor growth compared with vehicle", "setting": "subcutaneous CT26 tumors; CT26, 1 mg/kg SC", "value": 4.0, "unit": "days"},
      {"measurement": "Delay of tumor growth compared with vehicle", "setting": "subcutaneous CT26 tumors; CT26, 4 mg/kg SC", "value": 21.0, "unit": "days"},
      {"measurement": "Time mice remained tumor-free after the last dose", "setting": "subcutaneous CT26 tumors; CT26, longest observation in any study", "value": "approximately 2.5 months"},
      {"measurement": "Complete tumor suppression, initial CT26 tumor", "setting": "subcutaneous CT26 tumors; Figure 5B study, three IT doses of 100 μg", "value": 100, "unit": "%"},
      {"measurement": "Delayed Response (TV > 10 and <2000 mm^3)", "setting": "subcutaneous CT26 tumors; [3]", "value": 10, "unit": "% ^c"},
      {"measurement": "Treatment Failure (TV > 2000 mm^3)", "setting": "subcutaneous CT26 tumors; [3]", "value": 44, "unit": "% ^c"},
      {"measurement": "Delayed Response (TV > 10 and <2000 mm^3)", "setting": "subcutaneous CT26 tumors; [4]", "value": 0, "unit": "%"},
      {"measurement": "Treatment Failure (TV > 2000 mm^3)", "setting": "subcutaneous CT26 tumors; [4]", "value": 10, "unit": "%"},
      {"measurement": "Complete Response (TV < 10 mm^3)", "setting": "subcutaneous CT26 tumors; [5]", "value": 0, "unit": "%"},
      {"measurement": "Delayed Response (TV > 10 and <2000 mm^3)", "setting": "subcutaneous CT26 tumors; [5]", "value": 0, "unit": "%"},
      {"measurement": "Treatment Failure (TV > 2000 mm^3)", "setting": "subcutaneous CT26 tumors; [5]", "value": 100, "unit": "%"},
      {"measurement": "TV at end of study of animal with delayed response", "setting": "subcutaneous CT26 tumors; Table 4 study, 100 μg IT", "value": 18, "unit": "mm^3"},
      {"measurement": "Delayed Response (TV > 10 and <2000 mm^3)", "setting": "subcutaneous CT26 tumors; Table 4 study, 100 μg IT", "value": 10, "unit": "% ^b"},
      {"measurement": "Treatment Failure (TV > 2000 mm^3)", "setting": "subcutaneous CT26 tumors; Table 4 study, 100 μg IT", "value": 50, "unit": "%"},
      {"measurement": "Complete Response (TV < 10 mm^3)", "setting": "subcutaneous CT26 tumors; Table 4 study, 100 μg IT, n = 10", "value": 40, "unit": "%"},
      {"measurement": "Median Time to Endpoint", "setting": "subcutaneous CT26 tumors; Table 4 study, 100 μg IT", "value": 38.0, "unit": "days"},
      {"measurement": "Delayed Response (TV > 10 and <2000 mm^3)", "setting": "subcutaneous CT26 tumors; Table 4 study, 1 mg/kg SC", "value": 0, "unit": "%"},
      {"measurement": "Treatment Failure (TV > 2000 mm^3)", "setting": "subcutaneous CT26 tumors; Table 4 study, 1 mg/kg SC", "value": 100, "unit": "%"},
      {"measurement": "Complete Response (TV < 10 mm^3)", "setting": "subcutaneous CT26 tumors; Table 4 study, 1 mg/kg SC, n = 10", "value": 0, "unit": "%"},
      {"measurement": "Median Time to Endpoint", "setting": "subcutaneous CT26 tumors; Table 4 study, 1 mg/kg SC", "value": 21.0, "unit": "days"},
      {"measurement": "TV at end of study of animal with delayed response", "setting": "subcutaneous CT26 tumors; Table 4 study, 4 mg/kg SC", "value": 1568, "unit": "mm^3"},
      {"measurement": "Delayed Response (TV > 10 and <2000 mm^3)", "setting": "subcutaneous CT26 tumors; Table 4 study, 4 mg/kg SC", "value": 10, "unit": "% ^a"},
      {"measurement": "Treatment Failure (TV > 2000 mm^3)", "setting": "subcutaneous CT26 tumors; Table 4 study, 4 mg/kg SC", "value": 80, "unit": "%"},
      {"measurement": "Complete Response (TV < 10 mm^3)", "setting": "subcutaneous CT26 tumors; Table 4 study, 4 mg/kg SC, n = 10", "value": 10, "unit": "%"},
      {"measurement": "Median Time to Endpoint", "setting": "subcutaneous CT26 tumors; Table 4 study, 4 mg/kg SC", "value": 35.0, "unit": "days"},
      {"measurement": "remaining at 24 h", "setting": "[2]", "value": 100, "unit": "%"}
    ]}
  ]
}
